Where two headings read alike, the source gives them in different places. One block for each compound: values may come before it. Where a SMILES comes first, the peptide text is derived from it. Bridges are numbered along the chain shown (N, C = ends). Primed or numbered codes have the meaning given here. [ ]: non-standard residue; d: D form. ξ: configuration not given here. NMePhe(3-Cl) = CN[C@@H](Cc1cccc(Cl)c1)C(=O)O; NMeW = CN[C@@H](Cc1c[nH]c2ccccc12)C(=O)O; NMeY = CN[C@@H](Cc1ccc(O)cc1)C(=O)O; PEG4 = NCCOCCOCCOCCOCCC(=O)O; ξαMeK = CC(N)(CCCCN)C(=O)O; PEG11′ = not defined here
Target: transferrin receptor (hTfR) (Homo sapiens, UniProt P02786)
Sequence (P02786 whole entry): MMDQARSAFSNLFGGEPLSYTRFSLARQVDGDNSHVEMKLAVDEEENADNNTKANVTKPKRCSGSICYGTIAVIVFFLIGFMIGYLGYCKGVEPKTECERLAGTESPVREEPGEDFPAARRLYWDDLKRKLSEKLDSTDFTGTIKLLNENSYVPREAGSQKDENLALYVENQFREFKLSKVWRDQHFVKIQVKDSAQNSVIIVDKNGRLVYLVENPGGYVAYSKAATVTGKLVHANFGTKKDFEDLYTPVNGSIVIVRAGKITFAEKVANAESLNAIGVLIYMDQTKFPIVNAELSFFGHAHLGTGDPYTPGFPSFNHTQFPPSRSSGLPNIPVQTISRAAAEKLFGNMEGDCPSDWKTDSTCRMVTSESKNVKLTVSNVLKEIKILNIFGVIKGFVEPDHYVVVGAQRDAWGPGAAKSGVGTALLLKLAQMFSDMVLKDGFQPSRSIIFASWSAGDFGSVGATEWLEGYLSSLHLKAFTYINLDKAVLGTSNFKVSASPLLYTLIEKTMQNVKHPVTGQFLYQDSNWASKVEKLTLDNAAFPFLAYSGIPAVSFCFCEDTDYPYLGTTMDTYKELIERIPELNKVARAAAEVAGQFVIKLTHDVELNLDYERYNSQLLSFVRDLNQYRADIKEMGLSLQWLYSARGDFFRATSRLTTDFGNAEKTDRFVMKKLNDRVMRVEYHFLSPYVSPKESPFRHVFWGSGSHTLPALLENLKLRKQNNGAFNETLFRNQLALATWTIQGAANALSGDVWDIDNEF
Assay: Intermolecular interaction evaluation test between transferrin receptor (hTfR) and peptide by surface plasmon resonance (SPR)
Format: binding
Protocol: For each of the various synthesized peptides, the intermolecular interaction of the peptide with the transferrin receptor (hTfR) was tested by surface plasmon resonance (SPR) according to the following method. The specific test method is as follows.
An NTA sensor chip (Global Life Sciences Technologies Japan) was inserted in a Biacore T200 (Global Life Sciences Technologies Japan) and a prime operation was performed 3 times with a running buffer: 10 mM HEPES pH 8.0 (Nacalai Tesque), 150 mM NaCl (Nacalai Tesque), 0.05% Tween 20 (Nacalai Tesque), 0.1% BSA (Sigma-Aldrich), 1.0% DMSO (FUJIFILM Wako Pure Chemical) to create an Equilibration state at a flow rate of 30 µL/min. After reacting with 350 mM EDTA solution for 60 seconds at a flow rate of 10 µL/min then reacting with 0.5 mM NiCl2 solution (Kishida Chemical) for 60 seconds at a flow rate of 10 µL/min, the NTA sensor chip was washed with 3 mM EDTA solution (Nacalai Tesque) for 60 seconds at a flow rate of 10 µL/min. After mixing 50 µL each of 60 mM EDC solution (Global Life Sciences Technologies Japan) and 650 mM NHS solution (Global Life Sciences Technologies Japan), the mixture was reacted for 420 seconds at a flow rate of 10 µL/min. By diluting with the running buffer, 150 µL of 3.2 µM hTfR solution was prepared and used for reaction for 600 seconds at a flow rate of 10 µL/min, thereby immobilizing hTfR on the NTA sensor chip. After immobilization, capping was performed by reacting with 1.0 M ethanolamine aqueous solution (Global Life Sciences Technologies Japan) for 420 seconds at a flow rate of 10 µL/min. A peptide dissolution liquid prepared to 10 mM in the DMSO solution was diluted with the running buffer to a final concentration of 10 µM so as to become the peptide dissolution liquid, then peptide solutions of 100 nM, 50 nM, 25 nM, 10 nM and 5 nM were prepared. Kinetics of the peptide to hTfR was acquired by SPR measurement using the above-mentioned samples. Single-cycle kinetics was used as a kinetic evaluation model and curve fitting was performed using Biacore T200 Evaluation Software Version 3.0 (Global Life Sciences Technologies Japan). An obtained sensorgram was subjected to curve fitting using the least-squares method, and the binding of the peptide to hTfR was evaluated by obtaining KD values. […] A chemical structure of hTfR No. 894 is as follows.
The variant peptides were synthesized according to Example 1 unless otherwise stated in Example 9 or 10. The linker-added peptides were synthesized according to Example 1, except that Fmoc-NH-SAL-PEG resin (Watanabe Chemical Industries) was used as a resin for the peptide synthesis when the linker was PEG. The peptide, to which a peptide, a fatty acid, PEG, or a conjugate thereof is added as a linker, was also synthesized according to Example 1, unless otherwise stated in Example 9 or 10.

[1] = surface plasmon resonance, peptide vs hTfR, read-out: KD value, hTfR binding by SPR (class symbol)

Compound: CC[C@H](C)[C@@H]1NC(=O)[C@H](Cc2ccc(O)cc2)NC(=O)[C@H](Cc2ccc(O)cc2)NC(=O)[C@H](CC(N)=O)NC(=O)[C@H](Cc2c[nH]c3ccccc23)NC(=O)[C@H](C(C)C)NC(=O)[C@H](Cc2ccccc2)N(C)C(=O)[C@H](C(C)C)NC(=O)[C@H](C)NC(=O)CSC[C@@H](C(=O)NCCOCCOCCOCCOCCOCCOCCOCCOCCOCCOCCOCCOCCC(N)=O)NC(=O)[C@H](Cc2ccc(O)cc2)N(C)C(=O)[C@H](Cc2ccc(O)cc2)NC(=O)[C@@H](CCCNC(=N)N)NC(=O)[C@H](CCCNC(=N)N)NC(=O)[C@H]([C@@H](C)CC)NC1=O [compound 116]
Kd (SPR, hTfR No. 894 variants with PEG12c linker (Table 2), read-out: KD): 1 to 100 nM

Compound: CC[C@H](C)[C@@H]1NC(=O)[C@H](Cc2ccc(OC)nc2)NC(=O)[C@H](Cc2ccc(O)cc2)NC(=O)[C@H](CC(N)=O)NC(=O)[C@H](Cc2c[nH]c3ccccc23)N(C)C(=O)[C@H](C(C)C)NC(=O)[C@H](Cc2cccc(Cl)c2)N(C)C(=O)[C@H](C(C)C)NC(=O)[C@H](C)NC(=O)CSC[C@@H](C(N)=O)NC(=O)[C@H](Cc2ccc(O)cc2)N(C)C(=O)[C@H](Cc2ccccc2)NC(=O)[C@@H](CCCNC(=N)N)NC(=O)C(C)(C)NC(=O)[C@H]([C@@H](C)CC)NC1=O [compound 323]
Kd [1]: 1 to 100 nM

Compound: CC[C@H](C)[C@@H]1NC(=O)[C@H](Cc2ccc(O)cc2)NC(=O)[C@H](Cc2ccc(O)cc2)NC(=O)[C@H](CC(N)=O)NC(=O)[C@H](Cc2c[nH]c3ccccc23)N(C)C(=O)[C@H](C(C)C)NC(=O)[C@H](Cc2cc(Cl)cc(Cl)c2)N(C)C(=O)[C@H](C(C)C)NC(=O)[C@H](C)NC(=O)CSC[C@@H](C(N)=O)NC(=O)[C@H](Cc2ccc(O)cc2)N(C)C(=O)[C@H](Cc2ccccc2)NC(=O)[C@@H](CCCNC(=N)N)NC(=O)[C@H](CCCNC(=N)N)NC(=O)[C@H]([C@@H](C)CC)NC1=O [compound 302]
Kd [1]: 1 to 100 nM

Compound: CC[C@H](C)[C@@H]1NC(=O)[C@H](Cc2ccc(OC)cc2)NC(=O)[C@H](Cc2ccc(O)cc2)NC(=O)[C@H](CC(N)=O)NC(=O)[C@H](Cc2c[nH]c3ccccc23)N(C)C(=O)[C@H](C(C)C)NC(=O)[C@H](Cc2cccc(Cl)c2)N(C)C(=O)[C@H](C(C)C)NC(=O)[C@H](C)NC(=O)CSC[C@@H](C(=O)NCCOCCOCCOCCOCCC(N)=O)NC(=O)[C@H](Cc2ccc(O)cc2)N(C)C(=O)[C@H](Cc2ccccc2)NC(=O)[C@@H](CCCNC(=N)N)NC(=O)C(C)(CCCCN)NC(=O)[C@H]([C@@H](C)CC)NC1=O (stereo partly drawn) [compound 380] ({CH2CO}-AV[NMePhe(3-Cl)]V[NMeW]NYY(Me)II[ξαMeK][dR]F[NMeY]C[PEG4]-NH2; thioether N-15)
Kd (surface plasmon resonance, hTfR, read-out: KD value for hTfR by SPR (class symbol)): 1 to 100 nM

Continued, values first:

Kd (hTfR binding by SPR, hTfR No. 894 variant peptides, linker-added peptides and payload conjugates (Table 2), read-out: KD value obtained from the SPR measurement): 1 to 100 nM
Compound: CC[C@H](C)[C@@H]1NC(=O)[C@H](Cc2ccc(O)cc2)NC(=O)[C@H](Cc2ccc(O)cc2)NC(=O)[C@H](CC(N)=O)NC(=O)[C@H](Cc2c[nH]c3ccccc23)NC(=O)[C@H](C(C)C)NC(=O)[C@H](Cc2ccccc2)N(C)C(=O)[C@H](C(C)C)NC(=O)[C@H](C)NC(=O)CSC[C@@H](C(=O)NCC(=O)NCC(=O)NCC(=O)N[C@@H](CO)C(=O)N[C@@H](CO)C(=O)N[C@@H](CCCCNC(=O)C2CCC(CN3C(=O)C=CC3=O)CC2)C(N)=O)NC(=O)[C@H](Cc2ccc(O)cc2)N(C)C(=O)[C@H](Cc2ccc(O)cc2)NC(=O)[C@H](CCCNC(=N)N)NC(=O)[C@H](CCCNC(=N)N)NC(=O)[C@H]([C@@H](C)CC)NC1=O (stereo partly drawn) [compound 187]

hTfR binding ability (SPR, result in words): no binding to hTfR was recognized
Compound: hTfRNo.894FLIP-vivotag750: control: cyclic peptide with inverted No. 894 sequence (SEQ ID NO: 202) bound to VivoTag 750 via PEG11 linker ({CH2CO}-A[NMeY]YRRIIYYNWVFVC-{PEG11′-VivoTag750}; thioether N-15 (inferred); not fully specified; printed as ClAc-Ala-MeTyr-Tyr-Arg-Arg-Ile-Ile-Tyr-Tyr-Asn-Trp-Val-Phe-Val-Cys) [reference compound]

Source: patent US20230203098A1, “HUMAN TRANSFERRIN RECEPTOR BINDING PEPTIDE” (priority 2020, published 2023)
